In ChEMBL document CHEMBL3046329, “Sensitivity to silthiofam, tebuconazole and difenoconazole of Gaeumannomyces graminis var. tritici isolates from China” (Pest Manag Sci, 2012):
≈ marks a conversion by molar mass, not a printed value.

Experiments:
Assay type in all cases: functional, organism-based
[1] = system: Gaeumannomyces tritici; test: Antifungal activity against sithiofam-sensitive Gaeumannomyces graminis var. tritici isolate HN23 expressing C2 genetic cluster assessed as reduction in fungal colony diameter after 4 days; details: isolate HN23, 96 h
[2] = system: Gaeumannomyces tritici; test: Antifungal activity against sithiofam-resistant Gaeumannomyces graminis var. tritici isolate HN07 expressing C1 genetic cluster assessed as reduction in fungal colony diameter after 4 days; details: isolate HN07, 96 h
[3] = system: Gaeumannomyces tritici; test: Antifungal activity against sithiofam-sensitive Gaeumannomyces graminis var. tritici isolate HN29 expressing C2 genetic cluster assessed as reduction in fungal colony diameter after 4 days; details: isolate HN29, 96 h
[4] = system: Gaeumannomyces tritici; test: Antifungal activity against sithiofam-sensitive Gaeumannomyces graminis var. tritici isolate HN30 expressing C2 genetic cluster assessed as reduction in fungal colony diameter after 4 days; details: isolate HN30, 96 h
[5] = system: Gaeumannomyces tritici; test: Antifungal activity against sithiofam-sensitive Gaeumannomyces graminis var. tritici isolate AH16 expressing C2 genetic cluster assessed as reduction in fungal colony diameter after 4 days; details: isolate AH16, 96 h
[6] = system: Gaeumannomyces tritici; test: Antifungal activity against sithiofam-sensitive Gaeumannomyces graminis var. tritici isolate HN18 expressing C2 genetic cluster assessed as reduction in fungal colony diameter after 4 days; details: isolate HN18, 96 h
[7] = system: Gaeumannomyces tritici; test: Antifungal activity against sithiofam-resistant Gaeumannomyces graminis var. tritici isolate HN06 expressing C1 genetic cluster assessed as reduction in fungal colony diameter after 4 days; details: isolate HN06, 96 h
[8] = system: Gaeumannomyces tritici; test: Antifungal activity against sithiofam-sensitive Gaeumannomyces graminis var. tritici isolate HN19 expressing C2 genetic cluster assessed as reduction in fungal colony diameter after 4 days; details: isolate HN19, 96 h
[9] = system: Gaeumannomyces tritici; test: Antifungal activity against sithiofam-resistant Gaeumannomyces graminis var. tritici isolate HN09 expressing C1 genetic cluster assessed as reduction in fungal colony diameter after 4 days; details: isolate HN09, 96 h
[10] = system: Gaeumannomyces tritici; test: Antifungal activity against sithiofam-resistant Gaeumannomyces graminis var. tritici isolate JS04 expressing C1 genetic cluster assessed as reduction in fungal colony diameter after 4 days; details: isolate JS04, 96 h
[11] = system: Gaeumannomyces tritici; test: Antifungal activity against sithiofam-resistant Gaeumannomyces graminis var. tritici isolate HN27 expressing […] genetic cluster assessed as reduction in fungal colony diameter after 4 days; details: isolate HN27, 96 h
[12] = system: Gaeumannomyces tritici; test: Antifungal activity against sithiofam-sensitive Gaeumannomyces graminis var. tritici isolate HN17 expressing C2 genetic cluster assessed as reduction in fungal colony diameter after 4 days; details: isolate HN17, 96 h
[13] = system: Gaeumannomyces tritici; test: Antifungal activity against sithiofam-sensitive Gaeumannomyces graminis var. tritici isolate AH09 expressing C2 genetic cluster assessed as reduction in fungal colony diameter after 4 days; details: isolate AH09, 96 h
[14] = system: Gaeumannomyces tritici; test: Antifungal activity against sithiofam-sensitive Gaeumannomyces graminis var. tritici isolate HN15 expressing C2 genetic cluster assessed as reduction in fungal colony diameter after 4 days; details: isolate HN15, 96 h
[15] = system: Gaeumannomyces tritici; test: Antifungal activity against sithiofam-resistant Gaeumannomyces graminis var. tritici isolate JS11 expressing C1 genetic cluster assessed as reduction in fungal colony diameter after 4 days; details: isolate JS11, 96 h
[16] = system: Gaeumannomyces tritici; test: Antifungal activity against sithiofam-sensitive Gaeumannomyces graminis var. tritici isolate HN25 expressing C2 genetic cluster assessed as reduction in fungal colony diameter after 4 days; details: isolate HN25, 96 h
[17] = system: Gaeumannomyces tritici; test: Antifungal activity against sithiofam-sensitive Gaeumannomyces graminis var. tritici isolate HN11 expressing C2 genetic cluster assessed as reduction in fungal colony diameter after 4 days; details: isolate HN11, HN11, 96 h
[18] = system: Gaeumannomyces tritici; test: Antifungal activity against sithiofam-resistant Gaeumannomyces graminis var. tritici isolate JS06 expressing C1 genetic cluster assessed as reduction in fungal colony diameter after 4 days; details: isolate JS06, 96 h
[19] = system: Gaeumannomyces tritici; test: Antifungal activity against sithiofam-resistant Gaeumannomyces graminis var. tritici isolate HN05 expressing C1 genetic cluster assessed as reduction in fungal colony diameter after 4 days; details: isolate HN05, 96 h
[20] = system: Gaeumannomyces tritici; test: Antifungal activity against sithiofam-resistant Gaeumannomyces graminis var. tritici isolate JS07 expressing C1 genetic cluster assessed as reduction in fungal colony diameter after 4 days; details: isolate JS07, 96 h
[21] = system: Gaeumannomyces tritici; test: Antifungal activity against sithiofam-resistant Gaeumannomyces graminis var. tritici isolate HN03 expressing C1 genetic cluster assessed as reduction in fungal colony diameter after 4 days; details: isolate HN03, 96 h
[22] = system: Gaeumannomyces tritici; test: Antifungal activity against sithiofam-resistant Gaeumannomyces graminis var. tritici isolate HN04 expressing C1 genetic cluster assessed as reduction in fungal colony diameter after 4 days; details: isolate HN04, 96 h
[23] = system: Gaeumannomyces tritici; test: Antifungal activity against sithiofam-sensitive Gaeumannomyces graminis var. tritici isolate JS01 expressing C1 genetic cluster assessed as reduction in fungal colony diameter after 4 days; details: isolate JS01, 96 h
[24] = system: Gaeumannomyces tritici; test: Antifungal activity against sithiofam-resistant Gaeumannomyces graminis var. tritici isolate AH14 expressing C1 genetic cluster assessed as reduction in fungal colony diameter after 4 days; details: isolate AH14, 96 h
[25] = system: Gaeumannomyces tritici; test: Antifungal activity against sithiofam-resistant Gaeumannomyces graminis var. tritici isolate JS09 expressing C1 genetic cluster assessed as reduction in fungal colony diameter after 4 days; details: isolate JS09, 96 h
[26] = system: Gaeumannomyces tritici; test: Antifungal activity against sithiofam-resistant Gaeumannomyces graminis var. tritici isolate JS05 expressing C1 genetic cluster assessed as reduction in fungal colony diameter after 4 days; details: isolate JS05, 96 h
[27] = system: Gaeumannomyces tritici; test: Antifungal activity against sithiofam-sensitive Gaeumannomyces graminis var. tritici isolate HN14 expressing C2 genetic cluster assessed as reduction in fungal colony diameter after 4 days; details: isolate HN14, 96 h
[28] = system: Gaeumannomyces tritici; test: Antifungal activity against sithiofam-sensitive Gaeumannomyces graminis var. tritici isolate AH15 expressing C2 genetic cluster assessed as reduction in fungal colony diameter after 4 days; details: isolate AH15, 96 h
[29] = system: Gaeumannomyces tritici; test: Antifungal activity against sithiofam-resistant Gaeumannomyces graminis var. tritici isolate AH10 expressing C1 genetic cluster assessed as reduction in fungal colony diameter after 4 days; details: isolate AH10, 96 h
[30] = system: Gaeumannomyces tritici; test: Antifungal activity against sithiofam-sensitive Gaeumannomyces graminis var. tritici isolate AH01 expressing C2 genetic cluster assessed as reduction in fungal colony diameter after 4 days; details: isolate AH01, 96 h
[31] = system: Gaeumannomyces tritici; test: Antifungal activity against sithiofam-resistant Gaeumannomyces graminis var. tritici isolate AH02 expressing C1 genetic cluster assessed as reduction in fungal colony diameter after 4 days; details: isolate AH02, 96 h
[32] = system: Gaeumannomyces tritici; test: Antifungal activity against sithiofam-sensitive Gaeumannomyces graminis var. tritici isolate SD01 expressing C2 genetic cluster assessed as reduction in fungal colony diameter after 4 days; details: isolate SD01, 96 h
[33] = system: Gaeumannomyces tritici; test: Antifungal activity against sithiofam-sensitive Gaeumannomyces graminis var. tritici isolate HN21 expressing C2 genetic cluster assessed as reduction in fungal colony diameter after 4 days; details: isolate HN21, 96 h
[34] = system: Gaeumannomyces tritici; test: Antifungal activity against sithiofam-resistant Gaeumannomyces graminis var. tritici isolate HN01 expressing C1 genetic cluster assessed as reduction in fungal colony diameter after 4 days; details: isolate HN01, 96 h
[35] = system: Gaeumannomyces tritici; test: Antifungal activity against sithiofam-sensitive Gaeumannomyces graminis var. tritici isolate AH05 expressing C2 genetic cluster assessed as reduction in fungal colony diameter after 4 days; details: isolate AH05, 96 h
[36] = system: Gaeumannomyces tritici; test: Antifungal activity against sithiofam-sensitive Gaeumannomyces graminis var. tritici isolate JS02 expressing C1 genetic cluster assessed as reduction in fungal colony diameter after 4 days; details: isolate JS02, 96 h
[37] = system: Gaeumannomyces tritici; test: Antifungal activity against sithiofam-sensitive Gaeumannomyces graminis var. tritici isolate SD04 expressing C2 genetic cluster assessed as reduction in fungal colony diameter after 4 days; details: isolate SD04, 96 h

Row | SMILES | EC50 [1] | EC50 [2] | EC50 [3] | EC50 [4] | EC50 [5] | EC50 [6] | EC50 [7] | EC50 [8] | EC50 [9] | EC50 [10] | EC50 [11] | EC50 [12] | EC50 [13] | EC50 [14] | EC50 [15] | EC50 [16] | EC50 [17] | EC50 [18] | EC50 [19] | EC50 [20] | further results
1 | CC1COC(Cn2cncn2)(c2ccc(Oc3ccc(Cl)cc3)cc2Cl)O1 (centres undefined) [DIFENOCONAZOLE] | 0.331 µg/mL (≈ 0.816 µM) | 0.481 µg/mL (≈ 1.18 µM) | 0.107 µg/mL (≈ 0.265 µM) | 0.102 µg/mL (≈ 0.251 µM) | 0.126 µg/mL (≈ 0.309 µM) | 0.313 µg/mL (≈ 0.769 µM) | 0.479 µg/mL (≈ 1.18 µM) | 0.326 µg/mL (≈ 0.803 µM) | 0.159 µg/mL (≈ 0.392 µM) | 0.198 µg/mL (≈ 0.486 µM) | 0.226 µg/mL (≈ 0.557 µM) | 0.175 µg/mL (≈ 0.432 µM) | 0.142 µg/mL (≈ 0.349 µM) | 0.0884 µg/mL (≈ 0.218 µM) | 0.164 µg/mL (≈ 0.403 µM) | 0.154 µg/mL (≈ 0.38 µM) | 0.164 µg/mL (≈ 0.403 µM) | 0.223 µg/mL (≈ 0.548 µM) | 0.261 µg/mL (≈ 0.643 µM) | 0.201 µg/mL (≈ 0.495 µM) | EC50 [21]: 0.336 µg/mL (≈ 0.827 µM); EC50 [22]: 0.255 µg/mL (≈ 0.626 µM); EC50 [23]: 0.142 µg/mL (≈ 0.349 µM); EC50 [24]: 0.301 µg/mL (≈ 0.741 µM); EC50 [25]: 0.13 µg/mL (≈ 0.32 µM); EC50 [26]: 0.213 µg/mL (≈ 0.525 µM); EC50 [27]: 0.0988 µg/mL (≈ 0.243 µM); EC50 [28]: 0.169 µg/mL (≈ 0.415 µM); EC50 [29]: 0.128 µg/mL (≈ 0.314 µM); EC50 [30]: 0.17 µg/mL (≈ 0.419 µM); EC50 [31]: 0.273 µg/mL (≈ 0.672 µM); EC50 [32]: 0.782 µg/mL (≈ 1.93 µM); EC50 [33]: 0.254 µg/mL (≈ 0.625 µM); EC50 [34]: 0.389 µg/mL (≈ 0.958 µM); EC50 [35]: 0.0683 µg/mL (≈ 0.168 µM); EC50 [36]: 0.28 µg/mL (≈ 0.689 µM); EC50 [37]: 0.0923 µg/mL (≈ 0.227 µM)
2 | CC(C)(C)C(O)(CCc1ccc(Cl)cc1)Cn1cncn1 (centres undefined) [TEBUCONAZOLE] | 0.078 µg/mL (≈ 0.253 µM) | 0.0513 µg/mL (≈ 0.167 µM) | 0.076 µg/mL (≈ 0.247 µM) | 0.123 µg/mL (≈ 0.401 µM) | 0.0965 µg/mL (≈ 0.313 µM) | 0.0727 µg/mL (≈ 0.236 µM) | 0.0533 µg/mL (≈ 0.173 µM) | 0.0478 µg/mL (≈ 0.155 µM) | 0.0415 µg/mL (≈ 0.135 µM) | 0.201 µg/mL (≈ 0.652 µM) | 0.0536 µg/mL (≈ 0.174 µM) | 0.0398 µg/mL (≈ 0.129 µM) | 0.0952 µg/mL (≈ 0.309 µM) | 0.0516 µg/mL (≈ 0.168 µM) | 0.0437 µg/mL (≈ 0.142 µM) | 0.086 µg/mL (≈ 0.279 µM) | 0.0562 µg/mL (≈ 0.183 µM) | 0.085 µg/mL (≈ 0.276 µM) | 0.0498 µg/mL (≈ 0.162 µM) | 0.0584 µg/mL (≈ 0.19 µM) | EC50 [21]: 0.0724 µg/mL (≈ 0.235 µM); EC50 [22]: 0.056 µg/mL (≈ 0.182 µM); EC50 [23]: 0.0325 µg/mL (≈ 0.106 µM); EC50 [24]: 0.0265 µg/mL (≈ 0.0861 µM); EC50 [25]: 0.0298 µg/mL (≈ 0.0968 µM); EC50 [26]: 0.0575 µg/mL (≈ 0.187 µM); EC50 [27]: 0.0479 µg/mL (≈ 0.156 µM); EC50 [28]: 0.0263 µg/mL (≈ 0.0854 µM); EC50 [29]: 0.112 µg/mL (≈ 0.363 µM); EC50 [30]: 0.0254 µg/mL (≈ 0.0825 µM); EC50 [31]: 0.0999 µg/mL (≈ 0.325 µM); EC50 [32]: 0.176 µg/mL (≈ 0.573 µM); EC50 [33]: 0.0609 µg/mL (≈ 0.198 µM); EC50 [34]: 0.0198 µg/mL (≈ 0.0643 µM); EC50 [35]: 0.0902 µg/mL (≈ 0.293 µM); EC50 [36]: 0.0547 µg/mL (≈ 0.178 µM); EC50 [37]: 0.127 µg/mL (≈ 0.412 µM)
